Data reported in patent US20160002267A1, “BENZYL-SUBSTITUTED PYRAZOLOPYRIDINES AND USE THEREOF” (BAYER PHARMA AKTIENGESELLSCHAFT, priority 2013, published 2016).

Tested on: conscious spontaneously hypertensive rats
Experiment: Radiotelemetric measurement of blood pressure on conscious spontaneously hypertensive rats
Type: in vivo, rat
Settings: SHR
From the text: A commercially available telemetry system from DATA SCIENCES INTERNATIONAL DSI, USA, is employed for the blood pressure measurement on conscious rats described below.
The system consists of 3 main components: • implantable transmitters (Physiotel® telemetry transmitter) • receivers (Physiotel® receiver) which are linked via a multiplexer (DSI Data Exchange Matrix) to a • data acquisition computer.
The telemetry system makes it possible to continuously record blood pressure, heart rate and body motion of conscious animals in their usual habitat.
The investigations are carried out on adult female spontaneously hypertensive rats (SHR Okamoto) with a body weight of >200 g. SHR/NCrl from the Okamoto Kyoto School of Medicine, 1963 were a cross of male Wistar Kyoto rats with highly elevated blood pressure and female rats having a slightly elevated blood pressure and at F13 handed over to the U.S. National Institutes of Health.
After transmitter implantation, the experimental animals are housed singly in type 3 Makrolon cages. They have free access to standard feed and water.
The day/night rhythm in the experimental laboratory is changed by the room lighting at 6.00 am and at 7.00 pm.
The telemetry transmitters TA11 PA-C40 used are surgically implanted under aseptic conditions in the experimental animals at least 14 days before the first experimental use. The animals instrumented in this way can be employed repeatedly after the wound has healed and the implant has settled.
Initiation of anaesthesia gas O2+N2O […] with 5% isofluran in a through-flow vessel.
After the anaesthesia has been initiated, the animal is connected to the anaesthesia mask on a thermal plate and receives 1.8% isofluran for anaesthesia maintenance and is shaved and disinfected over a large area of its abdomen. After the abdominal cavity has been opened along the linea alba, the liquid-filled measuring catheter of the system is inserted into the descending aorta in the cranial direction above the bifurcation and fixed with tissue glue (VetBonD™, 3M). The transmitter housing is fixed intraperitoneally to the abdominal wall muscle, and layered closure of the wound is performed.
An antibiotic (Oxytetracyclin® 10%, 60 mg/kg s.c., 0.06 ml/100 g body weight, Beta-Pharma GmbH & Co, Germany) and an analgesic (Rimadyl®, 4 mg/kg s.c., Pfizer, Germany) are administered postoperatively for prophylaxis of infection.
Unless indicated otherwise, the substances to be investigated are administered orally by gavage in each case to a group of animals (n=6). The test substances are dissolved in suitable solvent mixtures, or suspended in 0.5% strength Tylose, appropriate for an administration volume of 2 ml/kg of body weight.
A solvent-treated group of animals is employed as control.
The telemetry measuring unit present is configured for 24 animals. Each experiment is recorded under an experiment number (Vyear month day).
Each of the instrumented rats living in the system is assigned a separate receiving antenna (1010 Receiver, DSI).
The implanted transmitters can be activated externally by means of an incorporated magnetic switch and are switched to transmission in the run-up to the experiment. The signals emitted can be detected online by a data acquisition system (Dataquest™ A.R.T. for WINDOWS, DSI) and processed accordingly. The data are stored in each case in a file created for this purpose and bearing the experiment number.
In the standard procedure, the following are measured for 10-second periods in each case: • systolic blood pressure (SBP) • diastolic blood pressure (DBP) • mean arterial pressure (MAP) • heart rate (HR) • activity (ACT).
The acquisition of measurements is repeated under computer control at 5-minute intervals. The source data obtained as absolute value are corrected in the diagram with the currently measured barometric pressure (Ambient Pressure Reference Monitor; APR-1) and stored as individual data. […]

`CC1(C(F)(F)F)C(=O)Nc2nc(-c3nn(Cc4ccccc4F)c4ncc(F)cc34)nc(NCCC(F)(F)F)c21` (single isomer, unassigned) [Example 1-1, 2-[5-Fluoro-1-(2-fluorobenzyl)-1H-pyrazolo[3,4-b]pyridin-3-yl]-5-methyl-5-(trifluoromethyl)-4-[(3,3,3-trifluoropropyl)amino]-5,7-dihydro-6H-pyrrolo[2,3-d]pyrimidin-6-one] gave a Mean blood pressure (0.03 mg/kg, 0 hours after administration of substance) of 140.3 mmHg, a Mean blood pressure (0.03 mg/kg, 1 hours after administration of substance) of 124.4 mmHg and a Mean blood pressure (0.03 mg/kg, 2 hours after administration of substance) of 125.2 mmHg. It also gave a Mean blood pressure (0.03 mg/kg, 3 hours after administration of substance) of 120.6 mmHg, a Mean blood pressure (0.03 mg/kg, 4 hours after administration of substance) of 124.2 mmHg and a Mean blood pressure (0.03 mg/kg, 5 hours after administration of substance) of 119.2 mmHg. The Mean blood pressure (0.03 mg/kg, 6 hours after administration of substance) was 122.4 mmHg, the Mean blood pressure (0.03 mg/kg, 7 hours after administration of substance) was 124.8 mmHg and the Mean blood pressure (0.03 mg/kg, 8 hours after administration of substance) was 129.0 mmHg. It also gave a Mean blood pressure (0.03 mg/kg, 9 hours after administration of substance) of 132.2 mmHg, a Mean blood pressure (0.03 mg/kg, 10 hours after administration of substance) of 126.0 mmHg and a Mean blood pressure (0.03 mg/kg, 11 hours after administration of substance) of 119.8 mmHg. It also gave a Mean blood pressure (0.03 mg/kg, 12 hours after administration of substance) of 134.4 mmHg, a Mean blood pressure (0.03 mg/kg, 13 hours after administration of substance) of 130.0 mmHg and a Mean blood pressure (0.03 mg/kg, 14 hours after administration of substance) of 131.4 mmHg. It also gave a Mean blood pressure (0.03 mg/kg, 15 hours after administration of substance) of 133.6 mmHg, a Mean blood pressure (0.03 mg/kg, 16 hours after administration of substance) of 120.6 mmHg and a Mean blood pressure (0.03 mg/kg, 17 hours after administration of substance) of 135.4 mmHg. The Mean blood pressure (0.03 mg/kg, 18 hours after administration of substance) was 131.6 mmHg, the Mean blood pressure (0.03 mg/kg, 19 hours after administration of substance) was 123.2 mmHg and the Mean blood pressure (0.03 mg/kg, 20 hours after administration of substance) was 123.4 mmHg. The Mean blood pressure (0.03 mg/kg, 21 hours after administration of substance) was 125.4 mmHg, the Mean blood pressure (0.03 mg/kg, 22 hours after administration of substance) was 134.2 mmHg and the Mean blood pressure (0.03 mg/kg, 23 hours after administration of substance) was 132.0 mmHg. It also gave a Mean blood pressure (0.03 mg/kg, 24 hours after administration of substance) of 126.8 mmHg, a Mean blood pressure (0.3 mg/kg p.o., 0 hours after administration of substance) of 144.2 mmHg and a Mean blood pressure (0.3 mg/kg p.o., 1 hours after administration of substance) of 128.5 mmHg. It also gave a Mean blood pressure (0.3 mg/kg p.o., 2 hours after administration of substance) of 116.7 mmHg, a Mean blood pressure (0.3 mg/kg p.o., 3 hours after administration of substance) of 112.8 mmHg and a Mean blood pressure (0.3 mg/kg p.o., 4 hours after administration of substance) of 114.3 mmHg. It also gave a Mean blood pressure (0.3 mg/kg p.o., 5 hours after administration of substance) of 109.3 mmHg, a Mean blood pressure (0.3 mg/kg p.o., 6 hours after administration of substance) of 110.2 mmHg and a Mean blood pressure (0.3 mg/kg p.o., 7 hours after administration of substance) of 113.5 mmHg. It also gave a Mean blood pressure (0.3 mg/kg p.o., 8 hours after administration of substance) of 114.2 mmHg, a Mean blood pressure (0.3 mg/kg p.o., 9 hours after administration of substance) of 114.5 mmHg and a Mean blood pressure (0.3 mg/kg p.o., 10 hours after administration of substance) of 109.5 mmHg. It also gave a Mean blood pressure (0.3 mg/kg p.o., 11 hours after administration of substance) of 118.2 mmHg, a Mean blood pressure (0.3 mg/kg p.o., 12 hours after administration of substance) of 110.5 mmHg and a Mean blood pressure (0.3 mg/kg p.o., 13 hours after administration of substance) of 115.5 mmHg. It also gave a Mean blood pressure (0.3 mg/kg p.o., 14 hours after administration of substance) of 117.8 mmHg, a Mean blood pressure (0.3 mg/kg p.o., 15 hours after administration of substance) of 114.5 mmHg and a Mean blood pressure (0.3 mg/kg p.o., 16 hours after administration of substance) of 118.2 mmHg. The Mean blood pressure (0.3 mg/kg p.o., 17 hours after administration of substance) was 122.7 mmHg, the Mean blood pressure (0.3 mg/kg p.o., 18 hours after administration of substance) was 127.8 mmHg and the Mean blood pressure (0.3 mg/kg p.o., 19 hours after administration of substance) was 121.0 mmHg. It also gave a Mean blood pressure (0.3 mg/kg p.o., 20 hours after administration of substance) of 110.5 mmHg, a Mean blood pressure (0.3 mg/kg p.o., 21 hours after administration of substance) of 113.3 mmHg and a Mean blood pressure (0.3 mg/kg p.o., 22 hours after administration of substance) of 116.7 mmHg. It also gave a Mean blood pressure (0.3 mg/kg p.o., 23 hours after administration of substance) of 115.7 mmHg and a Mean blood pressure (0.3 mg/kg p.o., 24 hours after administration of substance) of 123.7 mmHg.
